{"source": "paper PMC6521145", "about": "(Viruses, 2019)", "key": {"[1]": {"system": "ZIKV (H/PAN and PRV)", "test": "Plaque assay, ZIKV titer from infected Vero cells", "format": "cell-based, Zika virus", "conditions": "for decrease in ZIKV titer / rescue of ZIKV replication from MTX treatment: 48 h PI; for rescue of ZIKV replication during MTX treatment: 5 µM MTX with GAT medium or 0.67 mM glycine, 37.5 µM adenosine, 41.3 µM thymidine, 48 h; for rescue of ZIKV replication from MTX treatment: 50 µM co-treatment with 5 µM MTX, H/PAN and PRV MOI 0.2, Vero cells"}, "[2]": {"system": "ZIKV (H/PAN)", "test": "Plaque assay, ZIKV titer from infected hNSCs", "format": "cell-based, Zika virus"}, "[3]": {"system": "ZIKV", "conditions": "human brain microvascular endothelial cells; read-out: inhibitory concentration 50 (IC50) against ZIKV; cited from earlier work"}, "[4]": {"system": "human brain microvascular endothelial cells", "conditions": "read-out: host cytotoxicity (CC50); cited from earlier work"}, "[5]": {"conditions": "human"}, "[6]": {"system": "ZIKV (H/PAN)", "test": "Immunofluorescence imaging of ZIKV envelope protein in infected hNSCs", "conditions": "Zika virus, read-out: IC50 (µM) Values of MTX, Immunofluorescence"}, "[7]": {"conditions": "human, hNSCs"}, "[8]": {"system": "ZIKV (H/PAN)", "test": "Immunofluorescence imaging of ZIKV envelope protein in infected Vero cells"}, "[9]": {"system": "Vero cells", "conditions": "for rescue of cell viability during MTX treatment (CTG): 5 µM MTX with GAT medium or 0.67 mM glycine, 37.5 µM adenosine, 41.3 µM thymidine"}, "[10]": {"system": "Vero cells", "conditions": "for rescue of cell viability during MTX treatment (CTF): 5 µM MTX with 0.67 mM glycine, 37.5 µM adenosine or 41.3 µM thymidine, uninfected Vero cells"}, "[11]": {"system": "hNSCs", "conditions": "hNSCs"}, "[12]": {"conditions": "GAT medium or 37.5 µM adenosine without MTX"}}, "note": "Where two headings read alike, the source gives them in different places.", "data": [{"smiles": "CN(Cc1cnc2nc(N)nc(N)c2n1)c1ccc(C(=O)N[C@@H](CCC(=O)O)C(=O)O)cc1", "note": "[MTX, methotrexate]", "values": [{"measurement": "decrease in ZIKV titer", "setting": "[1]; 5 µM MTX, H/PAN and PRV both MOI 0.2, Vero cells", "value": "approximately 10 fold"}, {"measurement": "ZIKV replication at 96 h PI compared to DMSO control", "setting": "[1]; 5 µM MTX, Vero cells, 96 h PI", "value": "resumed"}, {"measurement": "decrease in ZIKV titer", "setting": "[1]; 6.25 µM MTX, H/PAN MOI 0.2, Vero cells", "value": "approximately 10 fold"}, {"measurement": "ZIKV replication in infected hNSCs", "setting": "[2]; 5 μM MTX, hNSCs", "value": "reduced ZIKV replication"}, {"measurement": "IC50", "setting": "[3]", "value": 280, "unit": "nM"}, {"measurement": "CC50", "setting": "[4]", "value": "> 10000", "unit": "nM"}, {"measurement": "CC50", "setting": "[5]", "value": 16.3, "unit": "nM"}, {"measurement": "IC50", "setting": "[6]", "value": 0.334, "unit": "µM"}, {"measurement": "CC50", "setting": "[7]", "value": "> 100000", "unit": "nM"}, {"measurement": "ZIKV envelope protein synthesis", "setting": "[8]; 5 µM MTX, H/PAN MOI 0.2, Vero cells, 48 h PI", "value": "reduced"}, {"measurement": "IC50", "setting": "[8]; Zika virus, Vero, read-out: IC50 (µM) Values of MTX, Immunofluorescence", "value": 0.245, "unit": "µM"}]}, {"smiles": "Nc1ncnc2c1ncn2[C@@H]1O[C@H](CO)[C@@H](O)[C@H]1O", "note": "[adenosine]", "values": [{"measurement": "rescue of ZIKV replication during MTX treatment", "setting": "[1]; H/PAN MOI 0.2, Vero cells", "value": "rescued"}, {"measurement": "rescue of cell viability during MTX treatment (CTG)", "setting": "[9]; uninfected Vero cells", "value": "could"}, {"measurement": "viability of Vero cells, substance alone (CTG)", "setting": "[9]; [12]", "value": "did not alter"}, {"measurement": "rescue of cell viability during MTX treatment (CTF)", "setting": "[10]", "value": "could"}, {"measurement": "viability of Vero cells, substance alone (CTF)", "setting": "[10]; [12]", "value": "did not alter"}]}, {"smiles": "Nc1nc(=O)c2nc(CNc3ccc(C(=O)N[C@@H](CCC(=O)O)C(=O)O)cc3)cnc2[nH]1", "note": "[folic acid]", "values": [{"measurement": "rescue of ZIKV replication from MTX treatment", "setting": "[1]", "value": "could not rescue"}]}, {"smiles": "NCC(=O)O", "note": "[glycine]", "values": [{"measurement": "rescue of cell viability during MTX treatment (CTG)", "setting": "[9]; uninfected Vero cells", "value": "could not rescue"}, {"measurement": "rescue of cell viability during MTX treatment (CTF)", "setting": "[10]", "value": "could not rescue"}]}, {"smiles": "Nc1nc2c(c(=O)[nH]1)N(C=O)C(CNc1ccc(C(=O)N[C@@H](CCC(=O)O)C(=O)O)cc1)CN2", "note": "(stereo partly shown) [leucovorin]", "values": [{"measurement": "rescue of ZIKV replication from MTX treatment", "setting": "[1]", "value": "rescued"}, {"measurement": "rescue of ZIKV replication during MTX treatment", "setting": "[2]; 50 µM with 5 µM MTX, H/PAN MOI 0.1, hNSCs", "value": "same rescue effect"}, {"measurement": "cell viability, substance alone (CTG)", "setting": "[9]; 50 µM leucovorin vs water vehicle, Vero cells", "value": "No significant difference"}, {"measurement": "rescue of cell viability after MTX treatment (CTG)", "setting": "[9]; 50 µM with 5 µM MTX, uninfected Vero cells", "value": "could rescue"}, {"measurement": "cell viability, substance alone (CTG)", "setting": "[11]; 50 µM leucovorin vs water vehicle", "value": "No significant difference"}, {"measurement": "rescue of cell viability during MTX treatment (CTG)", "setting": "[11]; 50 µM with 5 µM MTX", "value": "same rescue effect"}]}, {"smiles": "Cc1cn([C@H]2C[C@H](O)[C@@H](CO)O2)c(=O)[nH]c1=O", "note": "[thymidine]", "values": [{"measurement": "rescue of ZIKV replication during MTX treatment", "setting": "[1]; H/PAN MOI 0.2, Vero cells", "value": "could not rescue"}, {"measurement": "rescue of cell viability during MTX treatment (CTG)", "setting": "[9]; uninfected Vero cells", "value": "could not rescue"}, {"measurement": "rescue of cell viability during MTX treatment (CTF)", "setting": "[10]", "value": "could not rescue"}]}]}
